The assay concerns L1210 leukemia ip in BDF1 mice, survival T/C. Put plainly: NCI In Vivo Anticancer Drug Screen. Data for tumor model L1210 Leukemia (intraperitoneal) in B6D2F1 (BDF1) mice. The note with it: higher = longer survival. In a few lines:
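Transplanted-tumor mice were given test agent; controls received vehicle only. Survival readings from the two groups were divided (treated over control).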

The values that follow come from PubChem BioAssay AID248 (DTP/NCI, 2004).

Several values for one entry are separate records, joined by “and”; a condition that tells them apart may be missing. Identical values can stand only once. Inconclusive results and toxic doses are left out.

Turning to `O=C(O)CCCc1ccc(N(CCCl)CCCl)cc1`, the T/C was 101 % of control and 104 % of control (endpoint: mean survival time, dose: 0.5 mg/kg/injection, schedule: Q01DX009 (ip), vehicle: saline with Tween-80); 96 % of control and 106 % of control (endpoint: mean survival time, dose: 1.0 mg/kg/injection, schedule: Q01DX009 (ip), vehicle: saline with Tween-80); 95 % of control and 105 % of control (endpoint: mean survival time, dose: 1.0 mg/kg/injection, schedule: Q04DX002 (ip), vehicle: saline with Tween-80); 107 % of control (endpoint: mean survival time, dose: 1.0 mg/kg/injection, schedule: Q12HX018 (ip), vehicle: saline with Tween-80); 103 % of control (endpoint: mean survival time, dose: 1.81 mg/kg/injection, schedule: Q01DX Z (ip), vehicle: carboxymethylcellulose (CMC)); 103 % of control and 107 % of control (endpoint: mean survival time, dose: 2.0 mg/kg/injection, schedule: Q01DX009 (ip), vehicle: saline with Tween-80). In addition, the T/C (endpoint: mean survival time, dose: 2.0 mg/kg/injection, schedule: Q04DX002 (ip), vehicle: saline with Tween-80) was 100 % of control and 105 % of control; the T/C (endpoint: mean survival time, dose: 2.0 mg/kg/injection, schedule: Q08HX027 (ip), vehicle: acetone) is 120 % of control; the T/C (endpoint: mean survival time, dose: 2.0 mg/kg/injection, schedule: Q12HX018 (ip), vehicle: acetone) is 110 % of control and 111 % of control and 121 % of control; the T/C (endpoint: mean survival time, dose: 2.0 mg/kg/injection, schedule: Q12HX018 (ip), vehicle: saline with Tween-80) was 115 % of control; the T/C (endpoint: mean survival time, dose: 2.5 mg/kg/injection, schedule: Q01DX001 (ip), vehicle: carboxymethylcellulose (CMC)) was 112 % of control; the T/C (endpoint: mean survival time, dose: 3.62 mg/kg/injection, schedule: Q01DX Z (ip), vehicle: carboxymethylcellulose (CMC)) was 106 % of control. Also, the T/C was 112 % of control and 123 % of control (endpoint: mean survival time, dose: 4.0 mg/kg/injection, schedule: Q01DX009 (ip), vehicle: acetone); 100 % of control and 115 % of control (endpoint: mean survival time, dose: 4.0 mg/kg/injection, schedule: Q01DX009 (ip), vehicle: saline with Tween-80); 96 % of control and 102 % of control (endpoint: mean survival time, dose: 4.0 mg/kg/injection, schedule: Q04DX002 (ip), vehicle: saline with Tween-80); 115 % of control (endpoint: mean survival time, dose: 4.0 mg/kg/injection, schedule: Q12HX018 (ip), vehicle: Klucel (hydroxypropylcellulose) (HPC)); 122 % of control (endpoint: mean survival time, dose: 4.0 mg/kg/injection, schedule: Q12HX018 (ip), vehicle: acetone); 112 % of control and 121 % of control (endpoint: mean survival time, dose: 4.0 mg/kg/injection, schedule: Q12HX018 (ip), vehicle: other). Besides, the T/C reads like this: (endpoint: mean survival time, dose: 4.0 mg/kg/injection, schedule: Q12HX018 (ip), vehicle: saline with Tween-80) 124 % of control; (endpoint: mean survival time, dose: 5.0 mg/kg/injection, schedule: Q01DX001 (ip), vehicle: carboxymethylcellulose (CMC)) 103 % of control; (endpoint: mean survival time, dose: 5.0 mg/kg/injection, schedule: Q08HX027 (ip), vehicle: acetone) 90 % of control; (endpoint: mean survival time, dose: 5.8 mg/kg/injection, schedule: Q01DX Z (ip), vehicle: carboxymethylcellulose (CMC)) 101 % of control and 103 % of control; (endpoint: mean survival time, dose: 6.0 mg/kg/injection, schedule: Q12HX018 (ip), vehicle: Klucel (hydroxypropylcellulose) (HPC)) 116 % of control; (endpoint: mean survival time, dose: 6.0 mg/kg/injection, schedule: Q12HX018 (ip), vehicle: acetone) 162 % of control. Moreover, the T/C is 120 % of control (endpoint: mean survival time, dose: 6.0 mg/kg/injection, schedule: Q12HX018 (ip), vehicle: other); 120 % of control (endpoint: mean survival time, dose: 6.0 mg/kg/injection, schedule: Q12HX018 (ip), vehicle: saline with Tween-80); 113 % of control (endpoint: mean survival time, dose: 6.25 mg/kg/injection, schedule: Q01DX Z (ip), vehicle: carboxymethylcellulose (CMC)); 98 % of control and 103 % of control and 120 % of control (endpoint: mean survival time, dose: 7.25 mg/kg/injection, schedule: Q01DX Z (ip), vehicle: carboxymethylcellulose (CMC)); 115 % of control and 116 % of control (endpoint: mean survival time, dose: 8.0 mg/kg/injection, schedule: Q01DX009 (ip), vehicle: saline with Tween-80); 96 % of control and 98 % of control (endpoint: mean survival time, dose: 8.0 mg/kg/injection, schedule: Q04DX002 (ip), vehicle: saline with Tween-80). Besides, the T/C reads like this: (endpoint: mean survival time, dose: 8.0 mg/kg/injection, schedule: Q12HX018 (ip), vehicle: Klucel (hydroxypropylcellulose) (HPC)) 114 % of control and 118 % of control; (endpoint: mean survival time, dose: 8.0 mg/kg/injection, schedule: Q12HX018 (ip), vehicle: acetone) 100 % of control; (endpoint: mean survival time, dose: 8.0 mg/kg/injection, schedule: Q12HX018 (ip), vehicle: saline with Tween-80) 118 % of control; (endpoint: mean survival time, dose: 9.66 mg/kg/injection, schedule: Q01DX Z (ip), vehicle: carboxymethylcellulose (CMC)) 100 % of control and 114 % of control; (endpoint: mean survival time, dose: 10.0 mg/kg/injection, schedule: Q01DX001 (ip), vehicle: carboxymethylcellulose (CMC)) 109 % of control; (endpoint: mean survival time, dose: 10.0 mg/kg/injection, schedule: Q12HX018 (ip), vehicle: acetone) 88 % of control. For the same compound, the T/C by setting is: (endpoint: mean survival time, dose: 12.0 mg/kg/injection, schedule: Q01DX009 (ip), vehicle: acetone) 122 % of control; (endpoint: mean survival time, dose: 12.0 mg/kg/injection, schedule: Q12HX018 (ip), vehicle: Klucel (hydroxypropylcellulose) (HPC)) 103 % of control and 121 % of control; (endpoint: mean survival time, dose: 12.0 mg/kg/injection, schedule: Q12HX018 (ip), vehicle: saline with Tween-80) 109 % of control; (endpoint: mean survival time, dose: 12.5 mg/kg/injection, schedule: Q01DX Z (ip), vehicle: carboxymethylcellulose (CMC)) 110 % of control; (endpoint: mean survival time, dose: 14.5 mg/kg/injection, schedule: Q01DX Z (ip), vehicle: carboxymethylcellulose (CMC)) 114 % of control and 117 % of control; (endpoint: mean survival time, dose: 16.0 mg/kg/injection, schedule: Q01DX009 (ip), vehicle: acetone) 101 % of control and 115 % of control. The T/C runs as follows: (endpoint: mean survival time, dose: 16.0 mg/kg/injection, schedule: Q01DX009 (ip), vehicle: saline with Tween-80) 121 % of control; (endpoint: mean survival time, dose: 16.0 mg/kg/injection, schedule: Q04DX002 (ip), vehicle: saline with Tween-80) 100 % of control and 108 % of control; (endpoint: mean survival time, dose: 16.0 mg/kg/injection, schedule: Q12HX018 (ip), vehicle: Klucel (hydroxypropylcellulose) (HPC)) 92 % of control; (endpoint: mean survival time, dose: 18.0 mg/kg/injection, schedule: Q01DX001 (ip), vehicle: carboxymethylcellulose (CMC)) 105 % of control; (endpoint: mean survival time, dose: 20.0 mg/kg/injection, schedule: Q01DX001 (ip), vehicle: carboxymethylcellulose (CMC)) 115 % of control; (endpoint: mean survival time, dose: 20.0 mg/kg/injection, schedule: Q01DX009 (ip), vehicle: acetone) 92 % of control. Further, the T/C (endpoint: mean survival time, dose: 20.0 mg/kg/injection, schedule: Q12HX018 (ip), vehicle: Klucel (hydroxypropylcellulose) (HPC)) is 89 % of control; the T/C (endpoint: mean survival time, dose: 25.0 mg/kg/injection, schedule: Q01DX Z (ip), vehicle: carboxymethylcellulose (CMC)) is 116 % of control; the T/C (endpoint: mean survival time, dose: 27.0 mg/kg/injection, schedule: Q01DX001 (ip), vehicle: carboxymethylcellulose (CMC)) is 109 % of control; the T/C (endpoint: mean survival time, dose: 27.0 mg/kg/injection, schedule: Q01DX001 (ip), vehicle: saline with Tween-80) is 113 % of control and 115 % of control; the T/C (endpoint: mean survival time, dose: 31.0 mg/kg/injection, schedule: Q04DX002 (ip), vehicle: saline with Tween-80) was 108 % of control and 109 % of control; the T/C (endpoint: mean survival time, dose: 40.0 mg/kg/injection, schedule: Q01DX001 (ip), vehicle: carboxymethylcellulose (CMC)) is 115 % of control. Moreover, the T/C by setting is: (endpoint: mean survival time, dose: 41.0 mg/kg/injection, schedule: Q01DX001 (ip), vehicle: carboxymethylcellulose (CMC)) 114 % of control; (endpoint: mean survival time, dose: 41.0 mg/kg/injection, schedule: Q01DX001 (ip), vehicle: saline with Tween-80) 115 % of control and 121 % of control; (endpoint: median survival time, dose: 3.0 mg/kg/injection, schedule: Q01DX009 (ip), vehicle: saline) 99 % of control; (endpoint: median survival time, dose: 6.0 mg/kg/injection, schedule: Q01DX009 (ip), vehicle: saline) 105 % of control; (endpoint: median survival time, dose: 12.0 mg/kg/injection, schedule: Q01DX009 (ip), vehicle: saline) 96 % of control; (endpoint: median survival time, dose: 24.0 mg/kg/injection, schedule: Q01DX009 (ip), vehicle: saline) 89 % of control.
Regarding `CC(=O)Nc1nc(/C=C/C(=O)CCl)c(CCCCc2ccccc2)c(=O)[nH]1`, the T/C (endpoint: mean survival time, dose: 50.0 mg/kg/injection, schedule: Q01DX001 (ip), vehicle: Klucel (hydroxypropylcellulose) (HPC)) is 93 % of control; the T/C (endpoint: mean survival time, dose: 100.0 mg/kg/injection, schedule: Q01DX001 (ip), vehicle: Klucel (hydroxypropylcellulose) (HPC)) was 102 % of control; the T/C (endpoint: mean survival time, dose: 200.0 mg/kg/injection, schedule: Q01DX001 (ip), vehicle: Klucel (hydroxypropylcellulose) (HPC)) was 96 % of control.
Regarding `CC12CC(C(O)(C(F)(F)F)C(F)(F)F)C(=O)C=C1CCC1C2CCC2(C)C(C(=O)CC(O)(C(F)(F)F)C(F)(F)F)CCC12` (stereo unspecified), the T/C runs as follows: (endpoint: mean survival time, dose: 100.0 mg/kg/injection, schedule: Q01DX001 (sc), vehicle: steriod suspending solution) 103 % of control; (endpoint: mean survival time, dose: 200.0 mg/kg/injection, schedule: Q01DX001 (sc), vehicle: steriod suspending solution) 103 % of control; (endpoint: mean survival time, dose: 400.0 mg/kg/injection, schedule: Q01DX001 (sc), vehicle: steriod suspending solution) 101 % of control.
